One assay concerns AKT. Description: Western blot, FN-induced AKT phosphorylation in Jurkat E6.1 cells. The assay is classed as cell-based. The conditions noted are these: Jurkat E6.1 cells pre-treated with 10^−7, 10^−8, 10^−9 M, then FN (10 µg/mL) 30 min. The method, then: To this purpose, Jurkat E6.1 cells were pre-treated with different concentrations (10^−7, 10^−8, 10^−9 M) of the compounds and then exposed to FN (10 µg/mL) for 30 min. […] In addition, the effects observed on intracellular signaling were concentration-dependent, except for compound 13 on AKT activation.
Western blot analysis was performed as previously described, with the following modifications. […] For integrin antagonists, JurkatE6.1 cells were subsequently incubated with FN (10 μg/mL) at 37 °C for 30 min. At the end of the incubation period, Jurkat E6.1 cells were lysed on ice using T-PER® (Tissue Protein Extraction Reagent, Life Technologies Italia, Milan, Italy), supplemented with a phosphatase inhibitor cocktail. Protein extracts were quantified using a BCA Protein Assay (Pierce, Rockford, IL, USA). The proteins from the cytoplasmatic extract were denatured at 95 °C for 3 min, then equal amounts of protein samples (30–50 μg) were loaded and separated via 12% SDS-PAGE. Proteins were transferred onto a nitrocellulose membrane (Biorad, Hercules, CA, USA), which was blocked with 5% nonfat milk in a Tris-buffered saline (10 mM Tris-HCl, pH 8, containing 150 mM NaCl) containing 0.1% Tween 20 for 1 h at room temperature. Membranes were stained overnight at 4 °C with anti-actin antibody (1:5000, Merck Life Science, Milan, Italy) or with anti-phospho-ERK1/2, anti-total ERK1/2, anti-phospho-AKT, anti-total-AKT, or anti-phospho-JNK antibodies (1:1000; Cell Signaling Technology, Danvers, MA, USA). The membranes were incubated with anti-rabbit peroxidase-conjugated secondary antibodies at a dilution of 1:8000. Blots were developed with a SuperSignal West Pico chemiluminescent substrate. Protocols for digital image acquisition and analysis have previously been described.
For orientation: In western blotting, separated proteins are transferred to a membrane and probed.

A further assay deals with T1, α4β1 integrin (Homo sapiens, UniProt P05556+P13612).
T1 construct: Jurkat E6.1 cell line, which endogenously expresses α4β1 integrin; host or cells: Jurkat E6.1
Description: α4β1 integrin-mediated Jurkat E6.1 cell adhesion to FN. The assay is classed as cell-based. The conditions noted are these: Jurkat E6.1 cell adhesion to FN (10 μg/mL); antag. = reduced cell adhesion; mean ± SD. As for the experimental part: To investigate the ability of the new peptides to modulate integrin-mediated cell adhesion, we employed cell adhesion assays using a Jurkat E6.1 cell line, which endogenously expresses α4β1 integrin and the natural ligand FN. […] On the contrary, ligands able to increase cell adhesion are defined as agonists.
The assays were performed as previously described. Briefly, regarding adhesion assays on Jurkat E6.1 or HL-60 cells, black 96-well plates (Corning Costar) were coated overnight at 4 °C with FN or Fg (10 μg/mL) or VCAM-1 (2 μg/mL) in order to investigate α4β1 integrin-mediated cell adhesion. To avoid any kind of unspecific binding, plates were incubated with 100 μL/well of blocking solution (1% BSA in HBSS) for 30 min at 37 °C. Cells were counted, stained with the CellTracker green CMFDA (12.5 μM, 30 min at 37 °C, Life Technologies Italia, Milan, Italy) and after three washes, were preincubated with increasing concentrations of new compounds (10^−10–10^−4 M) or with the vehicle (methanol) for 30 min at 37 °C.
Then, cells were plated (500,000/well) on coated wells and incubated for 30 min at 37 °C. Afterwards nonadherent cells were removed via washing with a blocking solution, and the remaining adhered cells were lysed with 0.5% Triton X-100 in PBS (30 min at 4 °C). Green fluorescence was measured (Ex485 nm/Em535 nm) using an EnSpire Multimode Plate Reader (PerkinElmer, Waltham, MA, USA).
In both types of adhesion assay, the number of adherent cells was determined via comparison with a standard curve made in the same plate. Experiments were carried out in quadruplicate and repeated at least three times. Data analysis and EC50 or IC50 values were calculated using GraphPad Prism 9.5.1 (GraphPad Software, San Diego, CA, USA).

As a reminder, the pIC50 is the negative decadic logarithm of the IC50, by convention in mol/L.

pIC50: −log10 of the molar value.

T1 sequence (P13612 34-1032): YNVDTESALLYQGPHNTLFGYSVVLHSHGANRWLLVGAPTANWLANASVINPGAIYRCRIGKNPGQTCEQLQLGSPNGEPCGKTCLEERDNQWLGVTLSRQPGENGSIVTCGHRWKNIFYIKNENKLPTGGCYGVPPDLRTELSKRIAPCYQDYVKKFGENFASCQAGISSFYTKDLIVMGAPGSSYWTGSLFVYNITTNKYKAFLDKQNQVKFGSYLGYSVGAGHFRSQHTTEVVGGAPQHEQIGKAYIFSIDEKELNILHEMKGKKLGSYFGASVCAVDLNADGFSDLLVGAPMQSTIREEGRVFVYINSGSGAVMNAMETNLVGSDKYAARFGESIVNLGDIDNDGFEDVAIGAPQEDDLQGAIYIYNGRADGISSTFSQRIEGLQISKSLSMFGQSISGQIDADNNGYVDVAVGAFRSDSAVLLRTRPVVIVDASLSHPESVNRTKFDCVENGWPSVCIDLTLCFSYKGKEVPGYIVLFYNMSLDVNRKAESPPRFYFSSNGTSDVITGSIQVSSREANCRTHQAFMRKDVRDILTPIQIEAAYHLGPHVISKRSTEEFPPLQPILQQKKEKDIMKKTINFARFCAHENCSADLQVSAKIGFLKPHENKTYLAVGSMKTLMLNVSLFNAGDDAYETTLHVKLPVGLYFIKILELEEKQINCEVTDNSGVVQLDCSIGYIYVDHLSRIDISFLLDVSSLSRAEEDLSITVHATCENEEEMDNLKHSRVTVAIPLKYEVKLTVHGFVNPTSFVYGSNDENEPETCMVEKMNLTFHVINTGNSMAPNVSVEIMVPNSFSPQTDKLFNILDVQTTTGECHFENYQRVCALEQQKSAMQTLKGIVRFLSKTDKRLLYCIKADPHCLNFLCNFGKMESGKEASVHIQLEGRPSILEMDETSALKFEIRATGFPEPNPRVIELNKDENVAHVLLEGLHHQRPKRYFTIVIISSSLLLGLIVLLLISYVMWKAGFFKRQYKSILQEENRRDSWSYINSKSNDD
T1 sequence (P05556 21-798): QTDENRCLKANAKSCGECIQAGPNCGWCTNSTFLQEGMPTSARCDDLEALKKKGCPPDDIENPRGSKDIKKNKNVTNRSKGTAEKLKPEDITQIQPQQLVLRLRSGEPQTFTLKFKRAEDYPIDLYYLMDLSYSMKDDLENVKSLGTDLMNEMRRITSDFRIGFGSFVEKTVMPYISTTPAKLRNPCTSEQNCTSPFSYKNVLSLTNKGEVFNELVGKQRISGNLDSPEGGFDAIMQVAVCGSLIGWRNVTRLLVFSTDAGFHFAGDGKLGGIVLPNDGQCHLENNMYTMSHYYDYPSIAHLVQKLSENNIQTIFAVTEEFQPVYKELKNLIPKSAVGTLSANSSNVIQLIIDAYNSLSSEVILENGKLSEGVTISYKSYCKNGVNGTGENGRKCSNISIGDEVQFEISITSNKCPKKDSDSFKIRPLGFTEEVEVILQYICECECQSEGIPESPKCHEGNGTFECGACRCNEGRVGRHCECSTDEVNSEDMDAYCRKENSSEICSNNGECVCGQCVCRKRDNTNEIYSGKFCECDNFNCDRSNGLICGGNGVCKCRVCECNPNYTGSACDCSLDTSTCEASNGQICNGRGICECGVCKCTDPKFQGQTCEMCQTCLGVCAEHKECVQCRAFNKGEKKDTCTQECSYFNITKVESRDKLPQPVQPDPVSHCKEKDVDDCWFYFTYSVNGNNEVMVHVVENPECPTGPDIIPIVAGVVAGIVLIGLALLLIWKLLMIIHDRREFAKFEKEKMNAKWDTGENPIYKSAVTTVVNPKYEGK

In the case of `CC(=O)N[C@@H](CNC(=O)Cc1ccc(NC(=O)Nc2ccccc2C)cc1)C(=O)NCC(=O)O` [compound 3], the “FN-induced AKT phosphorylation” value in the assay with AKT was “significantly prevented”.
Still for that read-out and setting: with `CCCNC(=O)[C@@H](CC(=O)NCC(=O)O)NC(=O)Cc1ccc(NC(=O)Nc2ccccc2C)cc1` [compound 8] the entry was “significantly prevented”.
Compound `Cc1ccccc1NC(=O)Nc1ccc(CNC(=O)C[C@@H](C)NC(=O)CC(=O)O)cc1` [compound 13] gave a pIC50 against α4β1 integrin of 6.38. Besides, the “FN-induced AKT phosphorylation” value with AKT is on record as “significantly prevented”.

For the origin of these results see paper PMC10253817, “Design, Pharmacological Characterization, and Molecular Docking of Minimalist Peptidomimetic Antagonists of α4β1 Integrin” (International Journal of Molecular Sciences, 2023).
